Measured values taken from ChEMBL document CHEMBL1201862, “PubChem BioAssay data set” (2004).
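Values below derive from 48-hour exposures of cells grown in 96-well plates, with endpoints linearly interpolated between the two concentrations bracketing the appropriate inhibition level. GI50 = concentration required for 50% inhibition of growth.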 Activity calls are given as the source filed them. Cut-off read from the data, not from the text of the source: active = GI50 up to about 1.1 µM and inactive = higher.

Tests used:
Assay in all cases: NCI-60 cell line screen, 48 h
[1] = tested on: NCI/ADR-RES
[2] = tested on: HCT-116
[3] = tested on: HT-29
[4] = tested on: SN12C
[5] = tested on: HCT-15
[6] = tested on: NCI-H23
[7] = tested on: SK-OV-3
[8] = tested on: EKVX
[9] = tested on: TK-10
[10] = tested on: NCI-H226
[11] = tested on: U-251
[12] = tested on: LOX IMVI
[13] = tested on: HOP-62
[14] = tested on: A498
[15] = tested on: M14
[16] = tested on: UACC-62
[17] = tested on: HCC 2998
[18] = tested on: COLO 205
[19] = tested on: CCRF-CEM
[20] = tested on: RXF 393

Compound	GI50 [1]	GI50 [2]	GI50 [3]	GI50 [4]	GI50 [5]	GI50 [6]	GI50 [7]	GI50 [8]	GI50 [9]	GI50 [10]	GI50 [11]	GI50 [12]	GI50 [13]	GI50 [14]	GI50 [15]	GI50 [16]	GI50 [17]	GI50 [18]	GI50 [19]	GI50 [20]
COc1ccc(S(=O)(=O)NC(CCC(=O)NC(N)=O)C(=O)NC(N)=O)cc1 (centres undefined)	> 100 µM (inactive)	> 100 µM (inactive)	> 100 µM (inactive)	> 100 µM (inactive)	> 100 µM	> 100 µM (inactive)	> 100 µM (inactive)	> 100 µM (inactive)	> 100 µM (inactive)	> 100 µM (inactive)	> 100 µM (inactive)	> 100 µM (inactive)	> 100 µM (inactive)	> 100 µM (inactive)	> 100 µM (inactive)	> 100 µM (inactive)	> 100 µM (inactive)	> 100 µM (inactive)	> 100 µM (inactive)	
NS(=O)(=O)c1ccc(NCc2cnc3ccccc3n2)cc1	> 100 µM (inactive)	> 100 µM (inactive)	> 100 µM (inactive)	> 100 µM (inactive)	> 100 µM	> 100 µM (inactive)	> 100 µM (inactive)	> 100 µM (inactive)	> 100 µM (inactive)	> 100 µM (inactive)	> 100 µM (inactive)		> 100 µM (inactive)	> 100 µM (inactive)	> 100 µM (inactive)	> 100 µM (inactive)	> 100 µM (inactive)	> 100 µM (inactive)	> 100 µM (inactive)	> 100 µM (inactive)
Cc1ccc(-c2cc(C(F)(F)F)nn2-c2ccc(S(N)(=O)=O)cc2)cc1 [CELECOXIB]	16.2 µM (inactive)	55 µM (inactive)	16.5 µM (inactive)	15.6 µM (inactive)	15.9 µM	17.1 µM (inactive)	18.3 µM (inactive)	17.9 µM (inactive)	18.8 µM (inactive)		16.1 µM (inactive)	18.2 µM (inactive)	67.9 µM (inactive)	15.1 µM (inactive)	67.9 µM (inactive)	15.4 µM (inactive)	15.7 µM (inactive)	16.1 µM (inactive)	14 µM (inactive)	17.1 µM (inactive)
C/C(=N\c1ccc(N(C)C)cc1)c1ccccc1	27 µM (inactive)	16.9 µM (inactive)	30.5 µM (inactive)	17.4 µM (inactive)	18.5 µM	21.1 µM (inactive)	> 100 µM (inactive)	72.3 µM (inactive)	20.8 µM (inactive)	76.2 µM (inactive)	22.5 µM (inactive)		96.2 µM (inactive)	> 100 µM (inactive)	16.3 µM (inactive)	17.1 µM (inactive)	44.6 µM (inactive)	17.8 µM (inactive)	17.7 µM (inactive)	5.35 µM (inactive)
O=C(OCc1ccc([N+](=O)[O-])cc1)N1c2ccccc2[C@@]23O[C@]24CCC[C@H]3C#C/C=C\C#C[C@H]14	43.6 µM (inactive)	> 100 µM (inactive)	> 100 µM (inactive)	> 100 µM (inactive)	89.1 µM	> 100 µM (inactive)	> 100 µM (inactive)	> 100 µM (inactive)	> 100 µM (inactive)	> 100 µM (inactive)	> 100 µM (inactive)	56.5 µM (inactive)		> 100 µM (inactive)	> 100 µM (inactive)	> 100 µM (inactive)	> 100 µM (inactive)	65.6 µM (inactive)	12.9 µM (inactive)	> 100 µM (inactive)
CSC12c3cc(C)n(-c4ccc([N+](=O)[O-])cc4)c3CC(C)(C)CN1C(=O)C2Oc1ccccc1 (centres undefined)	> 100 µM (inactive)	54.2 µM (inactive)		> 100 µM (inactive)	> 100 µM	74.1 µM (inactive)		36 µM (inactive)		> 100 µM (inactive)	> 100 µM (inactive)	> 100 µM (inactive)	> 100 µM (inactive)	10.6 µM (inactive)	> 100 µM (inactive)	22.2 µM (inactive)	35.5 µM (inactive)	> 100 µM (inactive)	> 100 µM (inactive)	> 100 µM (inactive)
O=C1c2ccccc2C(=O)N1CCc1nc(-c2ccccc2)c[nH]1	> 100 µM (inactive)	> 100 µM (inactive)	> 100 µM (inactive)	> 100 µM (inactive)	> 100 µM	> 100 µM (inactive)	> 100 µM (inactive)	> 100 µM (inactive)	> 100 µM (inactive)	> 100 µM (inactive)	> 100 µM (inactive)		> 100 µM (inactive)	> 100 µM (inactive)	> 100 µM (inactive)	> 100 µM (inactive)	> 100 µM (inactive)	> 100 µM (inactive)	> 100 µM (inactive)	
COc1ccc(-n2cnc3c(N)nc(N)nc32)cc1	> 100 µM (inactive)	> 100 µM (inactive)	> 100 µM (inactive)	53.6 µM (inactive)	> 100 µM	> 100 µM (inactive)	> 100 µM (inactive)	24.8 µM (inactive)	85.7 µM (inactive)	> 100 µM (inactive)	> 100 µM (inactive)		> 100 µM (inactive)	54.8 µM (inactive)	> 100 µM (inactive)	30.8 µM (inactive)	64.4 µM (inactive)	> 100 µM (inactive)	25.4 µM (inactive)	43.2 µM (inactive)
OC[C@@H](O)[C@H](O)[C@H](O)[C@@H](O)C1SCCCS1	> 100 µM (inactive)	> 100 µM (inactive)	> 100 µM (inactive)	> 100 µM (inactive)	> 100 µM	> 100 µM (inactive)	> 100 µM (inactive)	> 100 µM (inactive)	> 100 µM (inactive)	> 100 µM (inactive)	> 100 µM (inactive)		> 100 µM (inactive)	> 100 µM (inactive)	> 100 µM (inactive)	> 100 µM (inactive)	> 100 µM (inactive)	> 100 µM (inactive)		> 100 µM (inactive)
COC(=O)/C=c1/c2ccccc2n2nc3ccccc3c12	30.8 µM (inactive)	22.8 µM (inactive)	38.9 µM (inactive)	66.8 µM (inactive)	77.1 µM	66.5 µM (inactive)	16 µM (inactive)	> 100 µM (inactive)	31.6 µM (inactive)		69 µM (inactive)	36.9 µM (inactive)	> 100 µM (inactive)	26.2 µM (inactive)	> 100 µM (inactive)	70.8 µM (inactive)	62.5 µM (inactive)	27.6 µM (inactive)	11.4 µM (inactive)	34 µM (inactive)
N=c1c2c(-c3ccccc3)c[nH]c2ncn1N	> 100 µM (inactive)	> 100 µM (inactive)	> 100 µM (inactive)	> 100 µM (inactive)	> 100 µM	> 100 µM (inactive)	> 100 µM (inactive)	> 100 µM (inactive)	> 100 µM (inactive)	> 100 µM (inactive)	> 100 µM (inactive)	> 100 µM (inactive)	> 100 µM (inactive)	> 100 µM (inactive)	> 100 µM (inactive)	> 100 µM (inactive)	> 100 µM (inactive)	> 100 µM (inactive)	> 100 µM (inactive)	
[N-]=[N+]=Nc1c(C=O)c(=O)n(-c2ccccc2)c2ccccc12	23.7 µM (inactive)	> 10 µM (inactive)	23.1 µM (inactive)	42.3 µM (inactive)	18.4 µM	16.8 µM (inactive)	31.5 µM (inactive)		19.5 µM (inactive)		28.6 µM (inactive)	14.8 µM (inactive)	29.3 µM (inactive)	0.0778 µM (active)	18 µM (inactive)	15 µM (inactive)	19.1 µM (inactive)	13.5 µM (inactive)	3.09 µM (inactive)	12.1 µM (inactive)
Cc1ccc(S(=O)(=O)Oc2nc3ccccc3nc2OS(=O)(=O)c2ccc(C)cc2)cc1	> 100 µM (inactive)	> 100 µM (inactive)	> 100 µM (inactive)	> 100 µM (inactive)	> 100 µM	> 100 µM (inactive)	> 100 µM (inactive)	> 100 µM (inactive)	> 100 µM (inactive)	> 100 µM (inactive)	> 100 µM (inactive)	> 100 µM (inactive)		> 100 µM (inactive)	33.7 µM (inactive)	> 100 µM (inactive)	> 100 µM (inactive)	> 100 µM (inactive)	31.6 µM (inactive)	> 100 µM (inactive)
Oc1ccc(/C=C/c2ccc3cccc(O)c3n2)cc1O	0.493 µM (active)	3.77 µM (inactive)	14.7 µM (inactive)	2.94 µM (inactive)	3.29 µM		23.7 µM (inactive)	6.11 µM (inactive)	9.31 µM (inactive)		4.2 µM (inactive)	4.48 µM (inactive)	13.1 µM (inactive)	11.5 µM (inactive)	2.69 µM (inactive)	4.79 µM (inactive)	10.8 µM (inactive)	14.3 µM (inactive)	0.759 µM (active)	3.24 µM (inactive)
CC(=O)SCCC(NC(=S)Nc1ccccc1)P(=O)(Oc1ccccc1)Oc1ccccc1 (centres undefined)	> 100 µM (inactive)	> 100 µM (inactive)	> 100 µM (inactive)	> 100 µM (inactive)	> 100 µM	> 100 µM (inactive)	> 100 µM (inactive)	> 100 µM (inactive)	60.8 µM (inactive)	> 100 µM (inactive)	> 100 µM (inactive)	> 100 µM (inactive)	> 100 µM (inactive)		> 100 µM (inactive)	> 100 µM (inactive)	> 100 µM (inactive)	> 100 µM (inactive)	> 100 µM (inactive)	> 100 µM (inactive)
